According to paper PMC5818060 (Journal of Cell Science, 2018):

What was measured:
[1] = reason given for adding Fugene HD; ref Rena et al., 2004; cited from earlier work
Procedure: Where applicable, the small-molecule CK1 inhibitor D4476 (BioVision) was added to the cells 2-4 h prior to the analysis. For each triplicate the respective volume of D4476 (in DMSO) was added together with 1 μl Fugene HD (Promega) to 60 μl serum-free medium. The solution was mixed, incubated for 15 min and added to the cells. […] In the corresponding control ...

DDX3X = test: ATPase assay of DDX3X; format: biochemical, human; conditions: CK1ε pre-incubated with D4476; dsRNA-stimulated
Procedure: For the ATPase assay, Flag-tagged DDX3X full-length constructs were expressed in HEK293T cells. After purifying and eluting DDX3X from the beads, an aliquot of the eluates was resolved by SDS-PAGE in order to monitor the different DDX3X levels via western blotting and ImageJ. Based on this comparison, similar amounts of full-length DDX3X protein were used. Approximately 100 ng Flag-DDX3X protein and 10 ng His-CK1ε were used in a 60 μl reaction mix (reaction buffer: 20 mM Tris-HCl, pH 7.4, 200 mM NaCl, 0.5 mM DTT, 1 mM MgCl2, 1 mM ATP) with dsRNA (17 nM, 34 nM, 68 nM); the reaction was carried out at 37°C for 40 min. To phosphorylate DDX3X, 500 ng His-CK1εΔC or His-CK1εΔC^K38R were added in kinase buffer before eluting the DDX3X protein from the Sepharose magnetic Flag beads (Sigma). Incubation was performed at 37°C for 30 min. Then, beads were washed with 50 mM Tris-HCl, pH 7.5 and 500 mM NaCl before elution with Flag peptide. Termination of the helicase reaction was done with 10 μl of 50% TCA solution added to each reaction followed by centrifugation at 3000 g for 5 min at 4°C. Reaction mix was mixed with coloring solution (35 mM ammonium molybdate, 10 mM zinc acetate, 10% ascorbic acid, pH 5) in a 96-well plate before analysis using a spectrometer (wavelength 700 nm).

[2] = test system: endogenous CK1 / CK1 sensor in HEK293T cells; test: CK1 FRET biosensor, microplate reader FRET/CFP ratio; format: cell-based, human; conditions: HEK293T, CK1 sensor; D4476 0.4 or 2 µM in Fig. 1F-H, added 2-4 h prior to analysis; n=3
Procedure: HEK293T cells were seeded at a density of 20,000 cells/well on 96-well black microplates (PS, μClear, clear bottom, chimney well, Greiner No. 655090). Transfection was performed as described above. Unless indicated otherwise, the respective cell populations were transfected with 50-100 ng CK1 FRET biosensor, 100 ng regulator (i.e. N-Flag DDX3X) and 1-10 ng kinase (i.e. N-Flag CK1ε). Either empty pCS2 N-Flag vector or luciferase were used to transfect the same amount of DNA in every well. Generally, the different samples were run in triplicate for each individual experiment. Owing to the varying values for the FRET/CFP ratios based on transfection efficiency, cell density and the time point of analysis, we always set the FRET/CFP ratio of cells only transfected with the CK1 sensor to 1 in order to compare individual experiments. Importantly, the individual figures with the CK1 sensor represent only experiments performed on the same 96-well plate with the same cell density, transfection efficiency and time point.
Where applicable, the small-molecule CK1 inhibitor D4476 (BioVision) was added to the cells 2-4 h prior to the analysis. For each triplicate the respective volume of D4476 (in DMSO) was added together with 1 μl Fugene HD (Promega) to 60 μl serum-free medium. The solution was mixed, incubated for 15 min and added to the cells. […] In the corresponding controls an equal amount of DMSO instead of the inhibitor was added to the medium. Analysis was performed 48-60 h after transfection on an Infinite M1000 PRO microplate reader (Tecan) by exciting CFP with a wavelength of 433 nm and measuring the resulting emission at 460-600 nm in 2 nm increments. Fluorometric spectra were background subtracted with spectra recorded from wells with non-transfected cells. Resulting FRET/CFP ratios were calculated by dividing the intensity values at the respective peaks (478 nm for CFP, 528 nm for YFP) and analyzed essentially as described ([Fritz et al., 2013]). Where indicated, CK1δ/ε-derived peptides were transfected into cells using Metafectene (Biontex) 1 hour before measurements.

NC(=O)c1ccc(-c2nc(-c3ccc4c(c3)OCCO4)c(-c3ccccn3)[nH]2)cc1 [D4476, reference compound]
cell permeability [1]: poor cell permeability
effect of CK1 inhibitor on CK1ε-mediated inhibition of DDX3X ATPase activity (DDX3X): prevented inhibition of the ATPase activity of DDX3X
effect of CK1 inhibitor on FRET/CFP ratio of CK1 sensor [2]: reduced as a result of the inhibitor treatment
